According to BindingDB's records for doi:10.1021/acs.jmedchem.7b00441 (University of Bonn, 2017):

Columns and labels:
[1] = Inhibition of human GFP-fused ABCG2 expressed in MDCK2 cells assessed as potentiation of SN-38 induced cytotoxicity by measuring cell viability after 72 hrs by MTT assay
[2] = Inhibition of human GFP-fused ABCG2 expressed in MDCK2 cells assessed as potentiation of mitoxantrone induced cytotoxicity by measuring cell viability after 72 hrs by MTT assay

Structure (SMILES) | EC50 [1] [nM] | EC50 [2] [nM]
O=[N+]([O-])c1ccc(Nc2nc(-c3cccnc3)nc3ccccc23)cc1 | 21 | 13
Cc1cc(Nc2ccc(O)c([N+](=O)[O-])c2)nc(-c2ccccc2)n1 | 62 | 22
N#Cc1cccc(Nc2nc(-c3cccnc3)nc3ccccc23)c1 | 85 | –
